Measurements as given in patent publication US4645760A, “Activated aminoglycosides and aminoglycoside-aminocyclitols pharmaceutical compositions and method of use” (priority 1983, dated 1987).
Structures can show the parent of a compound that is named as a salt.

What was measured:
[1] = tested on: B. subtilis; assay: antibiotic disc diffusion after riboflavin/methionine/UV activation; type: cell-based; conditions: for potency enhancement of mixture of activated compound and parent compound: 2.8×10^-5 M riboflavin, 0.01M methionine, half hour uv light; for potency after coincubation with irradiated riboflavin vs riboflavin-free parent solution: Example 5, methionine, 365 nm, half hour
Protocol: The parent compounds in the above table were subjected to two synthetic activation processes according to the present invention. As set forth below, the parent compound was incubated with 2.8×10^-5 M riboflavin and 0.01M methionine (a hydrogen donor) for a half hour in the presence of a uv light.
A solution of […] riboflavin, and a hydrogen donor such as 0.01M methionine, was irradiated with ultraviolet light at 365 nm for a half hour to produce oxygen-free radicals.

[2] = tested on: epinephrine autoxidation; assay: epinephrine autoxidation inhibition assay (oxygen radical reactivity); type: biochemical; conditions: for IC50: 25° C., 0.1M sodium carbonate, pH 10.2, A320, sulfate form, read-out: (A) Molarity for 50% inhibition of epinephrine autoxidation; for relative molar ratio for 50% inhibition: KM:SM:NM:GM; for B/A Molar ratio (epinephrine molarity / molarity for 50% inhibition): pH 10.2, 25° C.
Protocol: The oxygen radical reactivity of 4-aminoglycosides KM, streptomycin (SM), neomycin (NM), and gentamicin (GM) was tested using a previously described modification of the commonly used epinephrine autoxidation assay. […] Further studies are required to determine the identification of the reacting active oxygen species (e.g. singlet oxygen, hydroperoxy radicals, superoxide radicals, hydroxyl radicals, or others).
Reactions were performed at 25° C.; in 0.1M sodium carbonate, pH 10.2. Absorbance at 320 nm (A320) as measured with a Varian model 219 spectrophotometer. Antibiotics (Sigma) were used in the sulfate form; the working molecular weight reflects the anhydrous weight of the base. At least five aminoglycoside concentrations, each replicated four times, were used to estimate the 50% epinephrine autoxidation inhibition value. Epinephrine concentrations yielding between 0.23 and 0.27 ΔA320 per minute was the basis for calculating the percent of inhibition. The data were analyzed by linear regression; standard deviations are shown.
When the unactivated aminoglycoside-aminocyclitol compounds are added at pH=10.2 to a cuvette containing epinephrine and 0.1 molar carbonate buffer, the aminoglycosides block the autoxidation of epinephrine to adrenochrome on approximately a mole-to-mole basis. This blockade is monitored spectrophotometrically at 320 nm and is a linear function of drug concentration. Using 9×10^-4 molar epinephrine, the linear region extends from 10^-5 to 10^-3 molar aminoglycoside. The sensitivity of this assay can be extended by lowering the starting epinephrine concentration.

[3] = tested on: superoxide free radicals; assay: block of nitro-blue tetrazolium (NBT) reduction by superoxide; type: biochemical; conditions: photoreduced riboflavin or xanthine-xanthine oxidase; 560 nm; unactivated aminoglycosides
Description: (§1) The auto-oxidation of epinephrine is blocked on a mole-to-mole basis by aminoglycosides and aminoglycoside-aminocyclitols. […] Other colorimetric or chemiluminescence assays for superoxide or hydroxyl radicals which use dyes or other reagents that can develop color selectively in the presence of these radicals can also form the basis of rapid photometric assays for parent aminoglycoside and aminoglycoside-aminocyclitol levels in biological or other aqueous solutions. The degree to which colored products are blocked by the aminoglycoside or the aminoglycoside-aminocyclitol compound would be directly proportional to the concentration of aminoglycosides and aminoglycoside-aminocyclitol compounds. Representative dyes and reactants include the following non-limitative list:
This is spectrophotometrically monitored at 560 nm, where the maximum absorbance of reduced NBT occurs. This procedure decreases in sensitivity at pH's higher than 7.0 and at very high (millimolar) drug concentrations. The reason for these limits is that superoxide reacts with aminoglycosides to generate a reducing compound which can interfere with the assay by directly reducing NBT.

[4] = tested on: bacteria (E. coli, Pseudomona aeruginosa); assay: bacterial killing by aminoglycosides (gentamicin, kanamycin) with coincubated enzyme; type: cell-based; conditions: coincubation, extracellular enzyme
[5] = tested on: hydroxyl free radicals; assay: hydroxyl free radical spin-adduct formation by Electron Paramagnetic Resonance; type: biochemical; conditions: spin traps ntb or DMPO; xanthine/xanthine oxidase, pH 7.8; millimolar drug
Description: as §1
Two spin traps were examined with the same conclusion, nitrosotertiary-butyl (ntb) and 5,5-dimethyl-1-pyrroline-1-oxide. The reaction mixture used to produce hydroxyl radical included 10^-4 M xanthine, 6×10^-8 M xanthine oxidase, 10^-3 EDTA, 10^-4 M spin trap (DMPO or ntb), 8.9×10^-5 M H2 O2, 0.1M potassium phosphate buffer; final pH--7.8. The free radical signals were directly monitored with and without the antibiotics by using the techniques of Electron Paramagnetic Resonance starting 2 minutes after reaction initiation. The scan range=100 Gauss; time constant=0.064 sec; modulation amplitude=1 Gauss; Microwave power=1 Mw; Microwave frequency=9.418 GHz; Field set=3350 Gauss; scan time=20 seconds; modulation frequency=100 KHz. AH =AN =14.9 G.

[6] = tested on: E. Coli (ATC 25922); assay: disc inhibition zone, E. Coli (Table 1); type: cell-based; conditions: for zone of inhibition at 40 µg/disc: Escherichia coli, read-out: mm inhibition zone due to 40 μgm/disc, organism - E. Coli; for mm inhibition zone, E. Coli per log concentration antibiotic: slope, 2000 and 200 ppm
Protocol: (§2) ^1 9 ml antibiotic #5 agar (Difco), was poured warm into 15 ×
(§3) 100 mm Plastic petri dishes and seeded with test bacteria to a density of
(§4) 2 × 10^6 bacteria per ml (except B. subtilis which was seeded a
(§5) in item 2 below). Q uarter inch sterile filter discs were placed on the
(§6) agars and loaded with 20 microliters of test solutions at concentrations
(§7) of 2000 and 200 ppm. The antibiotic amounts therefore were 40
(§8) micrograms/disc or 4 micrograms/disc. Slopes were based on duplicate
(§9) tests of each substance at these two concentrations. All substances, each
(§10) at two concentrations were tested on each plate. Data were averaged.
(§11) ^3 Concentration of compound 4 MM 0500a1 was adjusted to represent th
(§12) total organic content. That is, 2000 ppm means 2000 parts organic materia
(§13) per million parts water.

[7] = tested on: Pseudomonas maltophilispp.; assay: disc inhibition zone, Pseudomonas maltophilia (Table 1); type: cell-based; conditions: read-out: mm inhibition zone due to 40 μgm/disc, organism - Pseudomonas maltophilispp.
Protocol: as §2, §3, §4, §5, §6, §7, §8, §9, §10, §11, §12, §13

[8] = tested on: Bacillus subtilis; assay: disc inhibition zone, Bacillus subtilis (Table 1); type: cell-based; conditions: for zone of inhibition at 40 µg/disc: Bacillus subtilis, 40 μgm/disc, 30 degrees, 18 hours, read-out: mm inhibition zone due to 40 μgm/disc, organism - Bacillus subtilis; for mm inhibition zone, B. subtilis per log concentration antibiotic: slope by regression
Protocol: ^2 9 ml antibiotic #5 media (Difco), seeded to a concentration of 0.2
microliters of B. subtilis spores/500 ml agar, was dispensed into 15
× 100 ml plastic petri dishes. One quarter inch Schleicher and
Schuell sterile filter discs were placed on the agar and loaded with 20
microliters of dilutions of test compound including dilutions of 2000 ppm
600 ppm, 200 ppm, 60 ppm, and 20 ppm. The plates were incubated overnight
at 30 degrees centigrade, the inhibition zones measured at 18 hours. All
values were based on 6 tests at a given concentration; each plate was
corrected to an average kill zone due to 20 microliters of neomycin B bas
at a concentration of 30 ppm. Slopes and kill zones for 40 microgramloade
discs were obtained usi ng regression analysis.
as §11, §12, §13

[9] = tested on: S. aureus (ATCC 25923); assay: disc inhibition zone, S. aureus (Table 1); type: cell-based; conditions: for zone of inhibition at 40 µg/disc: Staphylococcus aureus, ATCC25923, read-out: mm inhibition zone due to 40 μgm/disc, Staphylococcus aureus (printed "coccus aureus"); for mm inhibition zone, S. aureus per log concentration antibiotic: slope, 2000 and 200 ppm
Protocol: as §2, §3, §4, §5, §6, §7, §8, §9, §10, §11, §12, §13

[10] = tested on: Pseudomonas aeruginosa (ATCC 22853); assay: disc inhibition zone, Pseudomonas aeruginosa (Table 1); type: cell-based; conditions: ATCC22853, read-out: mm inhibition zone due to 40 μgm/disc, organism - Pseudomonas aeruginosa
Protocol: as §2, §3, §4, §5, §6, §7, §8, §9, §10, §11, §12, §13

[11] = type: physicochemical

Row | Compound | potency enhancement of mixture of activated compound and parent compound [1] [%] | potency after coincubation with irradiated riboflavin vs riboflavin-free parent solution [1] | IC50 [2] [µM] | relative molar ratio for 50% inhibition [2] | B/A Molar ratio (epinephrine molarity / molarity for 50% inhibition) [2] | NBT reduction rate / blockade [3] | hydroxyl free radical spin-adduct formation [5] | further results
1 | NC[C@H]1O[C@H](O[C@H]2[C@H](O)[C@@H](O[C@H]3O[C@H](CO)[C@@H](O)[C@H](N)[C@H]3O)[C@H](N)C[C@@H]2N)[C@H](O)[C@@H](O)[C@@H]1O [KM, kanamycin] | 25 | enhanced potency | 700 ± 100 | ~ 6 | 1.11 | the rate of NBT reduction is slowed proportionally to the concentration of aminoglycoside | – | epinephrine autoxidation blocked ([2]; fourfold molar excess of KM): 97%
2 | Catalase | – | – | – | – | – | – | – | effect on bacterial killing by aminoglycosides (gentamicin, kanamycin) [4]: Catalase blockade occurs alone
3 | NC[C@@H]1O[C@H](O[C@H]2[C@@H](O)[C@H](O[C@@H]3[C@@H](O)[C@H](N)C[C@H](N)[C@H]3O[C@H]3O[C@H](CN)[C@@H](O)[C@H](O)[C@H]3N)O[C@@H]2CO)[C@H](N)[C@@H](O)[C@@H]1O [neoomycin B sulfate, neomycin B sulfate] | – | – | – | – | – | – | prevented in a concentration-dependent manner | –
4 | NC[C@H]1O[C@H](O[C@H]2[C@H](O)[C@@H](O[C@H]3O[C@H](CO)[C@@H](O)[C@H](N)[C@H]3O)[C@H](N)C[C@@H]2N)[C@H](O)[C@@H](O)[C@@H]1O [kanamycin sulfate] | – | – | – | – | – | – | prevented in a concentration-dependent manner | –
5 | [H]/N=C(/N)N[C@H]1[C@H](O)[C@@H](O)[C@H](O[C@@H]2O[C@@H](C)[C@](O)(C=O)[C@H]2O[C@@H]2O[C@@H](CO)[C@H](O)[C@@H](O)[C@@H]2NC)[C@@H](N/C(N)=N\[H])[C@@H]1O [streptomycin sulfate] | – | – | – | – | – | – | prevented in a concentration-dependent manner | –
6 | NC[C@@H]1O[C@H](O[C@H]2[C@@H](O)[C@H](O[C@@H]3[C@@H](O)[C@H](N)C[C@H](N)[C@H]3O[C@H]3O[C@H](CN)[C@@H](O)[C@H](O)[C@H]3N)O[C@@H]2CO)[C@H](N)[C@@H](O)[C@@H]1O [NM, neomycin] | 100 | enhanced potency | 2100 ± 140 | ~2 | 0.39 | – | – | –
7 | [H]/N=C(/N)N[C@H]1[C@H](O)[C@@H](O)[C@H](O[C@@H]2O[C@@H](C)[C@](O)(C=O)[C@H]2O[C@@H]2O[C@@H](CO)[C@H](O)[C@@H](O)[C@@H]2NC)[C@@H](N/C(N)=N\[H])[C@@H]1O [SM, streptomycin] | 18 | enhanced potency | 740 ± 100 | ~ 6 | 1.08 | – | – | –
8 | NC[C@H]1O[C@H](O[C@H]2[C@H](O)[C@@H](O)[C@H](N)C[C@@H]2N)[C@H](N)[C@@H](O)[C@@H]1O [Neomycin A base (neamine), Neomycin A base] | – | – | – | – | – | – | – | zone of inhibition at 40 µg/disc [6]: 24.7 mm; mm inhibition zone, E. Coli per log concentration antibiotic [6]: 7.8 mm per log concentration; zone of inhibition at 40 µg/disc [7]: 0 mm; zone of inhibition at 40 µg/disc [8]: 33.8 mm; mm inhibition zone, B. subtilis per log concentration antibiotic [8]: 7.0 mm per log concentration; zone of inhibition at 40 µg/disc [9]: 29.8 mm; mm inhibition zone, S. aureus per log concentration antibiotic [9]: 9.4 mm per log concentration; zone of inhibition at 40 µg/disc [10]: 0 mm
9 | NC[C@@H]1O[C@H](O[C@H]2[C@@H](O)[C@H](O[C@@H]3[C@@H](O)[C@H](N)C[C@H](N)[C@H]3O[C@H]3O[C@H](CN)[C@@H](O)[C@H](O)[C@H]3N)O[C@@H]2CO)[C@H](N)[C@@H](O)[C@@H]1O [NMb, Neomycin B base] | – | – | – | – | – | the rate of NBT reduction is slowed proportionally to the concentration of aminoglycoside | – | solubility in DMSO [11]: DMSO- insoluble; zone of inhibition at 40 µg/disc [6]: 14.9 mm; mm inhibition zone, E. Coli per log concentration antibiotic [6]: 5.5 mm per log concentration; zone of inhibition at 40 µg/disc [7]: 8.3 mm; zone of inhibition at 40 µg/disc [8]: 23.3 mm; mm inhibition zone, B. subtilis per log concentration antibiotic [8]: 5.6 mm per log concentration; zone of inhibition at 40 µg/disc [9]: 17.2 mm; mm inhibition zone, S. aureus per log concentration antibiotic [9]: 6.1 mm per log concentration; zone of inhibition at 40 µg/disc [10]: 10.7 mm
10 | gentamicin [GM] | 167 | enhanced potency | 4400 ± 460 | ~1 | 0.19 | the rate of NBT reduction is slowed proportionally to the concentration of aminoglycoside | – | –
